Laboratory results taken from ChEMBL document CHEMBL5465560, “Selectivity Literature for EUbOPEN Chemogenomic Library” (2024).

How the values were obtained:
[1] = target: T1, cAMP-dependent protein kinase catalytic subunit PRKX (Homo sapiens) (UniProt P51817); experiment: Selectivity interaction (KinomeScan (DiscoverX)) EUB0000092b PRKX; details: at 10 µM
T1 sequence (whole entry): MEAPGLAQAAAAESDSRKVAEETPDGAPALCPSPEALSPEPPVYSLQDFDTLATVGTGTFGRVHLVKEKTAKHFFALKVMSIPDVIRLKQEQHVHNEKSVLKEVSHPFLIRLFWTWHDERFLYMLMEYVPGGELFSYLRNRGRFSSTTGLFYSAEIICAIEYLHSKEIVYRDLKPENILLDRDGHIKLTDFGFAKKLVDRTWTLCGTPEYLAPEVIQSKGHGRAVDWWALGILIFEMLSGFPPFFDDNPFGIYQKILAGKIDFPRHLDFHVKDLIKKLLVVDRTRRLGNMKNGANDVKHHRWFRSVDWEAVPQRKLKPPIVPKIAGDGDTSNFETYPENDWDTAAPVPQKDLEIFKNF

[2] = target: Serine/threonine-protein kinase 33 (Homo sapiens) (UniProt Q9BYT3); experiment: Selectivity interaction (Upstate Kinase Profiler service (Millipore)) EUB0000056c STK33; details: at 1 µM
Serine/threonine-protein kinase 33 (Homo sapiens), sequence (Q9BYT3 whole entry, looked up, canonical isoform): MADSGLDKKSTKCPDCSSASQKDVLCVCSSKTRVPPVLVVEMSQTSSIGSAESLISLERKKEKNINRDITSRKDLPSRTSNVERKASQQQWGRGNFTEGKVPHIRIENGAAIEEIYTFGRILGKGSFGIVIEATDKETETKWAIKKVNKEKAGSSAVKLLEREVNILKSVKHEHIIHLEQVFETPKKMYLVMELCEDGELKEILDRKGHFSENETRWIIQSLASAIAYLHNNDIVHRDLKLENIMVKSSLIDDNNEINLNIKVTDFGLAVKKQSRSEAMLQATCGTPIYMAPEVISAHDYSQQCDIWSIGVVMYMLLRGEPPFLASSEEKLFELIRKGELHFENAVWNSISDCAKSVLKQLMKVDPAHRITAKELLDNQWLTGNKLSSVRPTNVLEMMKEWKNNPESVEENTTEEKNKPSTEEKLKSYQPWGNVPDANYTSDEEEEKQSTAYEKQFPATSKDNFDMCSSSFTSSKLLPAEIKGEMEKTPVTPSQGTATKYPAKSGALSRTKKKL

[3] = target: Phosphatidylinositol 4,5-bisphosphate 3-kinase catalytic subunit beta isoform (Homo sapiens) (UniProt P42338); experiment: Selectivity interaction (ProQinase) EUB0000171b PIK3CB
Phosphatidylinositol 4,5-bisphosphate 3-kinase catalytic subunit beta isoform (Homo sapiens), sequence (P42338 whole entry, looked up, canonical isoform): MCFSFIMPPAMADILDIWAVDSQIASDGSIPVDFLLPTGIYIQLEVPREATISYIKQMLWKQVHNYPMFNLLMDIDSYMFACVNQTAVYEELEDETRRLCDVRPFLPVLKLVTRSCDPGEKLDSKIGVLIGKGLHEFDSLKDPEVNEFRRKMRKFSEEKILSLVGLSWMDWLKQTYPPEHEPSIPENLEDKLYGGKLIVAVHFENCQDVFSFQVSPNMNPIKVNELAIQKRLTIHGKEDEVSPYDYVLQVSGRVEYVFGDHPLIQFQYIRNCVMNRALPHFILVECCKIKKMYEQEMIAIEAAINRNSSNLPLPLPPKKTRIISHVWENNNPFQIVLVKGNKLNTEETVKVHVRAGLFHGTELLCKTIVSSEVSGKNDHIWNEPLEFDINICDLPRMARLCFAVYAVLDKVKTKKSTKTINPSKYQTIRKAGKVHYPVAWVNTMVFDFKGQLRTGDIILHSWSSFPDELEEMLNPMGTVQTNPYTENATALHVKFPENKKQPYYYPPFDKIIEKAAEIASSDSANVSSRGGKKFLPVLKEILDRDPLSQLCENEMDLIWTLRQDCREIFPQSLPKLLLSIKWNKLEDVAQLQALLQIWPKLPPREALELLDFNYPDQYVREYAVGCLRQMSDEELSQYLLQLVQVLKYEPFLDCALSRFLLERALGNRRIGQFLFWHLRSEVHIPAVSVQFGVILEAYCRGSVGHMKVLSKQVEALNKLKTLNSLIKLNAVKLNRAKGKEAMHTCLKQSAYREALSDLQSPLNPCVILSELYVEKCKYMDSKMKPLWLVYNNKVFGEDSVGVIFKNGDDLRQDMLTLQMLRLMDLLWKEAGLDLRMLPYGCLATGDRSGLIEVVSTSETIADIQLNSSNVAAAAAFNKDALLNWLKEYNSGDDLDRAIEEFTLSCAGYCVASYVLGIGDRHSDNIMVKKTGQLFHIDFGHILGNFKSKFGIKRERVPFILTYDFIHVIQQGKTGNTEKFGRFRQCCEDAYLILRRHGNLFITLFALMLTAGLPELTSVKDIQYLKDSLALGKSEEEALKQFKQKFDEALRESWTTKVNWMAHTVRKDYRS

[4] = target: Serine/threonine-protein kinase pim-2 (Homo sapiens, UniProt Q9P1W9); experiment: Selectivity interaction (Kinase panel (Z-LYTE Assay)) EUB0001632a PIM2; details: at 10 µM
Serine/threonine-protein kinase pim-2, sequence (Q9P1W9 whole entry, looked up): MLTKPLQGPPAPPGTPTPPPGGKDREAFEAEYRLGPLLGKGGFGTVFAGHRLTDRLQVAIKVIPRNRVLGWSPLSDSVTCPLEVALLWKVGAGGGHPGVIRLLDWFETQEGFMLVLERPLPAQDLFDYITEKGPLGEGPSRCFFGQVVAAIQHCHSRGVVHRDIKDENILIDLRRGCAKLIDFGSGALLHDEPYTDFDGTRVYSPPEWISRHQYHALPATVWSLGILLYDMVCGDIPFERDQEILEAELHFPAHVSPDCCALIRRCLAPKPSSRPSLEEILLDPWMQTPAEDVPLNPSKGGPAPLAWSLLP

[5] = target: Cyclin-dependent kinase 2/cyclin E1 (Homo sapiens) (UniProt P24864+P24941); experiment: (§1) Selectivity interaction (LanthaScreen Eu Kinase Binding Assay) EUB0001632a CDK2; assay type: protein-complex assay; details: at 10 µM
[6] = target: CDK2/Cyclin O (Homo sapiens) (UniProt P24941+P22674); experiment: as §1; assay type: protein-complex assay; details: at 10 µM
[7] = target: CDK2/Cyclin A1 (Homo sapiens) (UniProt P24941+P78396); experiment: as §1; assay type: protein-complex assay; details: at 10 µM
[8] = target: T2, Histone-lysine N-methyltransferase NSD3 (Homo sapiens) (UniProt Q9BZ95); experiment: Selectivity interaction (PWWP, WD40, and Tudor domain panel (DSLS measurements, literature)) EUB0000270b NSD3
T2 sequence (whole entry): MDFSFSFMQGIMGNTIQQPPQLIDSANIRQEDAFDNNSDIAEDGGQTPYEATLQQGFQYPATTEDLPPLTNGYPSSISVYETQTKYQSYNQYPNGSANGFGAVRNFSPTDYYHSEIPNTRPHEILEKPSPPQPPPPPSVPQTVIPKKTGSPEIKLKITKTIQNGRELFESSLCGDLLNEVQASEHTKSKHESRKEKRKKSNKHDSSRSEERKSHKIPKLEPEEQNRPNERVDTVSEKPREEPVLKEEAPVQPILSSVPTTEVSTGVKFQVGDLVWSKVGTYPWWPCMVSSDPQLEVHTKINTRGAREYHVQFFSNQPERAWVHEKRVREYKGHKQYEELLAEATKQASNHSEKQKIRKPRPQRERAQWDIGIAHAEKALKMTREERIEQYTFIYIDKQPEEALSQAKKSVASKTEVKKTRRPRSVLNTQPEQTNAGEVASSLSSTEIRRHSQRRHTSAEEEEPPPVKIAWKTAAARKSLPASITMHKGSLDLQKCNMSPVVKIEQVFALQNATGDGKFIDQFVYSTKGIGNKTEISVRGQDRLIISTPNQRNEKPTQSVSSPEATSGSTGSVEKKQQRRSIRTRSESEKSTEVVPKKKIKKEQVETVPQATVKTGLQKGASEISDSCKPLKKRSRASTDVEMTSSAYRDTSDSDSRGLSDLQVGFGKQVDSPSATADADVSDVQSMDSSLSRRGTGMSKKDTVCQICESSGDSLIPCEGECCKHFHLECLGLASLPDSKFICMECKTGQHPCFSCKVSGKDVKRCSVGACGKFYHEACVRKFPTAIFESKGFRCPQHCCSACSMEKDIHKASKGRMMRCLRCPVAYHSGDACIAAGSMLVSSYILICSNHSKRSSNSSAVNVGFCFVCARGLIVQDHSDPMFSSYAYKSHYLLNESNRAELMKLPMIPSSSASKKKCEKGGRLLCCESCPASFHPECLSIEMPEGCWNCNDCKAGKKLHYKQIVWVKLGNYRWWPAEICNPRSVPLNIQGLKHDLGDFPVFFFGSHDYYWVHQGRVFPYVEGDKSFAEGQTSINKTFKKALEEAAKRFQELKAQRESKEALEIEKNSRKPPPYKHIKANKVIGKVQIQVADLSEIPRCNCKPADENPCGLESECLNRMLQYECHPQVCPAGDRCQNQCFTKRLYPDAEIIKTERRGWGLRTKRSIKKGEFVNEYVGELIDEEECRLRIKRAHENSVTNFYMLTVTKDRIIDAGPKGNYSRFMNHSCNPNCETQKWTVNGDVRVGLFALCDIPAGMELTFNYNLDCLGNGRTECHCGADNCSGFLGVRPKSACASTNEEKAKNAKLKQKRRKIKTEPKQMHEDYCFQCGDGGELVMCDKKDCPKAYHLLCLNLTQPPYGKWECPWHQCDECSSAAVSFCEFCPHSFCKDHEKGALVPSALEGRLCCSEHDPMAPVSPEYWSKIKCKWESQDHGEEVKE

[9] = target: Histone-lysine N-methyltransferase 2A (Homo sapiens) (UniProt Q03164); experiment: Selectivity interaction (Bromodomain panel (DSF asssay)) EUB0000270b MLL
[10] = target: Tyrosine-protein kinase SYK (Homo sapiens, UniProt P43405); experiment: Selectivity interaction (KinomeScan (DiscoverX)) EUB0000695a SYK; details: at 100 nM
[11] = target: Cyclin-dependent kinase 15 (Homo sapiens) (UniProt Q96Q40); experiment: Selectivity interaction (KinomeScan (DiscoverX)) EUB0000595a CDK15; details: at 10 µM
Cyclin-dependent kinase 15 (Homo sapiens), sequence (Q96Q40 whole entry): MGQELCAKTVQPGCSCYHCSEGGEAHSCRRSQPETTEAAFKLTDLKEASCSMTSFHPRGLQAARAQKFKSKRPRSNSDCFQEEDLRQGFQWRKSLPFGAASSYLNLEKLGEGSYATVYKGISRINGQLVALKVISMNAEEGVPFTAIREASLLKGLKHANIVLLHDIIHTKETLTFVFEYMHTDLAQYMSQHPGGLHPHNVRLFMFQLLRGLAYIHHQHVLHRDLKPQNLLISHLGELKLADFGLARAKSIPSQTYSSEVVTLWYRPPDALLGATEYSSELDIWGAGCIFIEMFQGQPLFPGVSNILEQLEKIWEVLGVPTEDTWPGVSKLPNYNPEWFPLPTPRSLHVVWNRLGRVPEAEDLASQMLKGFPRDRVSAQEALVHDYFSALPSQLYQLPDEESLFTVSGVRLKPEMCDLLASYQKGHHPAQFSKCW

[12] = system: eIF-2-alpha kinase GCN2 (Homo sapiens), Q9P2K8 [S808G]; experiment: Selectivity interaction (Ambit KINOMEscan and KiNATiv profiling in Jurkat cells) EUB0000090b EIF2AK4; assay type: cell-based; details: at 1 µM
eIF-2-alpha kinase GCN2 (Homo sapiens), Q9P2K8 [S808G], sequence (Q9P2K8 whole entry S808G): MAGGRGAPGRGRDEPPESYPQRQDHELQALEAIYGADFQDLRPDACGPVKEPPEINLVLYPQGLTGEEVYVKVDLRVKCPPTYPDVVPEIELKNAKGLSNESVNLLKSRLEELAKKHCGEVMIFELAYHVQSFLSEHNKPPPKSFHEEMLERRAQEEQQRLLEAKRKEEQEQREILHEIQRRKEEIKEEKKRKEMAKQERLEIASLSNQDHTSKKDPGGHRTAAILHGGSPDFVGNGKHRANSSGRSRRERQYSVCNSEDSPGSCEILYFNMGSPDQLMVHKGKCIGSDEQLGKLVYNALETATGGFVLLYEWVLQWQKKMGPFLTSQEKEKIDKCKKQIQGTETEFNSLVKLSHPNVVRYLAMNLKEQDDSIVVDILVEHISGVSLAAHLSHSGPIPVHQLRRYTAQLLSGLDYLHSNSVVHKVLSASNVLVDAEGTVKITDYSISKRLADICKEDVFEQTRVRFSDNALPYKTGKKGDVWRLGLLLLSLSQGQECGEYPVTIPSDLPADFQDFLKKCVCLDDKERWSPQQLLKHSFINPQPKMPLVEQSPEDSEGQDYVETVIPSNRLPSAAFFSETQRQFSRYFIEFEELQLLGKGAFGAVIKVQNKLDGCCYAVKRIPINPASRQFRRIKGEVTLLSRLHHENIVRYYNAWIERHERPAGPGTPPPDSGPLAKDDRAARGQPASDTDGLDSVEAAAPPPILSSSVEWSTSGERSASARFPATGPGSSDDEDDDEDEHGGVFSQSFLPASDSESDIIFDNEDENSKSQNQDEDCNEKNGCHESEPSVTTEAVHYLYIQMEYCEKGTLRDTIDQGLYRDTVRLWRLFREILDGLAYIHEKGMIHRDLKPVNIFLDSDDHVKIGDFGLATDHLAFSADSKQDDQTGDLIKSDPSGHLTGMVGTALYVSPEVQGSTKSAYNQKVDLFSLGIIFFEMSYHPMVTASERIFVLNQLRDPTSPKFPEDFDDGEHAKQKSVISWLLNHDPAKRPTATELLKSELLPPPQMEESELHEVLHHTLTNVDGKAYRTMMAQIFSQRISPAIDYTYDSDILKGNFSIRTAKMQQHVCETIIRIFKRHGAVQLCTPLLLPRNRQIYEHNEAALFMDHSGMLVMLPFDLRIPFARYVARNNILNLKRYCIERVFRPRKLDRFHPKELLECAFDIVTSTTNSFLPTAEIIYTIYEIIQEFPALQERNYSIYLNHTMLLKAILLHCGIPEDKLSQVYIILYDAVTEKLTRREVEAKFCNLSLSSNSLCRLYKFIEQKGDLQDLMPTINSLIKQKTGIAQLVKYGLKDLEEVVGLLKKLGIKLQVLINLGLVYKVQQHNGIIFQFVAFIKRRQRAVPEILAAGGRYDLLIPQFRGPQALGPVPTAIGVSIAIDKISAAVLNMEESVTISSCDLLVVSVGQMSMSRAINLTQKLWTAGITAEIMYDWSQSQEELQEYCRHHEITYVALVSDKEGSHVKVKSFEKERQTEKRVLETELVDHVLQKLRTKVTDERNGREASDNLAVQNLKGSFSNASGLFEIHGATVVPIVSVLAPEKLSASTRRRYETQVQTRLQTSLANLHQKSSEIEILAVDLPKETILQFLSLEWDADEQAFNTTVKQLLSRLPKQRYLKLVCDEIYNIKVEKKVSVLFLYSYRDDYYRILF

[13] = target: Interferon-induced, double-stranded RNA-activated protein kinase (Homo sapiens) (UniProt P19525); experiment: Selectivity interaction (KinomeScan (DiscoverX)) EUB0001619a EIF2AK2; details: at 1 µM
Interferon-induced, double-stranded RNA-activated protein kinase (Homo sapiens), sequence (P19525 whole entry): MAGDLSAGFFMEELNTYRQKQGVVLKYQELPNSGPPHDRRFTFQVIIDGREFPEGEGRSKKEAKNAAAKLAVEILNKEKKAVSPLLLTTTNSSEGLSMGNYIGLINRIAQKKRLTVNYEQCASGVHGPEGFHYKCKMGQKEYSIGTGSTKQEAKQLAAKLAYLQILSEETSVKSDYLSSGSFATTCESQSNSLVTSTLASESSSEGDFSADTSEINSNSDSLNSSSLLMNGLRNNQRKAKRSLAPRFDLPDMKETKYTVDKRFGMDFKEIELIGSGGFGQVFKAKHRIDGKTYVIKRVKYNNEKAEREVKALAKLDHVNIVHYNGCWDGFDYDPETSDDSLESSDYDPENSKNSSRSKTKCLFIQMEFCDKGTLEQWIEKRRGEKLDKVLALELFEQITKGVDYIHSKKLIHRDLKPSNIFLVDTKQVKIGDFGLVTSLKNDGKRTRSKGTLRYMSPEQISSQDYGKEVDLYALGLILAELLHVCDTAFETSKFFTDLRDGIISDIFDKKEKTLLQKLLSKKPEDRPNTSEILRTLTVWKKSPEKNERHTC

Question: For `CCC(=O)N1CCN(c2ccc(-n3c(=O)ccc4cnc5ccc(-c6cnc7ccccc7c6)cc5c43)cc2C(F)(F)F)CC1`, which % of control [1] is on record?
Answer: Its % of control is 83%.

Question: For `Cc1ccc(-c2ccc3c(ccc4sc5c(c43)NC[C@@H](C)NC5=O)n2)cn1`, which % of inhibition [2] is on record?
Answer: Its % of inhibition is 39%.

Question: Which % of control ([3]; at 1 µM) does the source give for `C=CC(=O)Nc1cccc(C(=O)Nc2ccc(Nc3cc(-c4[nH]c(SC)nc4C)ccn3)cc2)c1` here?
Answer: The % of control was 138%.

Question: And the % of control ([3]; at 5 µM)?
Answer: Its % of control is 166%.

Question: With `Cn1cc(-n2cnc3c(NCc4nc5cc(Cl)c(Cl)cc5[nH]4)nc(N4CCOCC4)nc32)cn1` as the compound, how does the % of control [4] read?
Answer: The % of control was 0.824%.

Question: What about the % of inhibition [5] of the same compound?
Answer: Its % of inhibition is -64.3%.

Question: What about the % of inhibition [6] of the same compound?
Answer: Its % of inhibition is -162%.

Question: And the % of inhibition [7]?
Answer: The % of inhibition was -33.3%.

Question: `Cc1cc(CN)cc(C)c1-c1ncn(C)c1-c1cncn1C` was tested. Which dTagg [8] did it give?
Answer: The dTagg was 0.5 K.

Question: What about the dTM [9] of the same compound?
Answer: Its dTM is -1.04 K.

Question: With `Cc1cc(F)c(C(=O)Nc2cccc(-c3nncn3C(C)C)n2)cc1-n1cnc(C2CC2)c1` as the compound, how does the % of control [10] read?
Answer: Its % of control is 76%.

Question: For `COCC(=O)NC/C=C/c1ccc2ncnc(Nc3ccc(Oc4ccc(C)nc4)c(C)c3)c2c1` [CP-724714], which % of control [11] is on record?
Answer: Its % of control is 71%.

Question: With `CN(C)C/C=C/C(=O)Nc1ccc(C(=O)N2CCCC(Nc3ncc(Cl)c(-c4c[nH]c5ccccc45)n3)C2)cc1` (centres undefined) as the compound, how does the % of control [12] read?
Answer: The % of control was 64%.

Question: Which % of control [13] does the source give for `N#Cc1cccc(-c2c[nH]c3ncnc(N4CCOCC4)c23)c1` here?
Answer: The % of control was 100%.
